According to ChEMBL document CHEMBL3352413, “4-Amino-2-arylamino-6-(2,6-dichlorophenyl)-pyrido[2,3-d]pyrimidin-7-(8H)-ones as BCR kinase inhibitors for B lymphoid malignancies” (Eur J Med Chem, 2014):
Active and inactive are the calls of the source. The calls are words filed in the database; no cut-off is given here.

What was measured:
[1] = biological target: Tyrosine-protein kinase BTK (Homo sapiens) (UniProt Q06187); assay: Inhibition of BTK phosphorylation in human Rec1 cells at 1 uM incubated for 6 hrs by Western blotting method; type: cell-based
Tyrosine-protein kinase BTK (Homo sapiens), sequence (Q06187 whole entry): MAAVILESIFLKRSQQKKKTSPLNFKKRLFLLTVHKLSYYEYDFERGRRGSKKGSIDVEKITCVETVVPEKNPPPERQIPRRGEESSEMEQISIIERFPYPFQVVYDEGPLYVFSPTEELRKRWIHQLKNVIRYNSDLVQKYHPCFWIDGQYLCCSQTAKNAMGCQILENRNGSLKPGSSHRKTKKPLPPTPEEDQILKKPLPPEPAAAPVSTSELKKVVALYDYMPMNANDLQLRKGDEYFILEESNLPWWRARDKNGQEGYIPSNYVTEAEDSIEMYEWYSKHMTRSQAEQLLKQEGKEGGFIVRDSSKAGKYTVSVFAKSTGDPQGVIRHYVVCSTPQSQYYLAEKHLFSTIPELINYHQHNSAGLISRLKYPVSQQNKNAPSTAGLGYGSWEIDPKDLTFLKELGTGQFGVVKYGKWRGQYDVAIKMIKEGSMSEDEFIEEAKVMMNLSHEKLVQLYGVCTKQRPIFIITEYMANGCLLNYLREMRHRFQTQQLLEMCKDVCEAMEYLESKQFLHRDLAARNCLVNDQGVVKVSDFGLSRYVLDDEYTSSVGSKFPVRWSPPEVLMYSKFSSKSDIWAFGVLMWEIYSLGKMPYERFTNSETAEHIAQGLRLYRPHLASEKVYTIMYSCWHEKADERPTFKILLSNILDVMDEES

[2] = biological target: Tyrosine-protein kinase BTK (Homo sapiens) (UniProt Q06187); assay: Inhibition of BTK (unknown origin) assessed as enzyme residual activity at 10 uM by radiometric protein kinase assay
[3] = biological target: Tyrosine-protein kinase SYK (Homo sapiens) (UniProt P43405); assay: Inhibition of Syk phosphorylation in human Rec1 cells at 0.1 to 5 uM incubated for 6 hrs by Western blotting method; type: cell-based
[4] = biological target: Tyrosine-protein kinase SYK (Homo sapiens) (UniProt P43405); assay: Inhibition of Syk (unknown origin) assessed as enzyme residual activity at 10 uM by radiometric protein kinase assay
[5] = biological target: Tyrosine-protein kinase Lyn (Homo sapiens) (UniProt P07948); assay: Inhibition of Lyn (unknown origin) assessed as enzyme residual activity at 10 uM by radiometric protein kinase assay
Tyrosine-protein kinase Lyn (Homo sapiens), sequence (P07948 2-512 limits assumed): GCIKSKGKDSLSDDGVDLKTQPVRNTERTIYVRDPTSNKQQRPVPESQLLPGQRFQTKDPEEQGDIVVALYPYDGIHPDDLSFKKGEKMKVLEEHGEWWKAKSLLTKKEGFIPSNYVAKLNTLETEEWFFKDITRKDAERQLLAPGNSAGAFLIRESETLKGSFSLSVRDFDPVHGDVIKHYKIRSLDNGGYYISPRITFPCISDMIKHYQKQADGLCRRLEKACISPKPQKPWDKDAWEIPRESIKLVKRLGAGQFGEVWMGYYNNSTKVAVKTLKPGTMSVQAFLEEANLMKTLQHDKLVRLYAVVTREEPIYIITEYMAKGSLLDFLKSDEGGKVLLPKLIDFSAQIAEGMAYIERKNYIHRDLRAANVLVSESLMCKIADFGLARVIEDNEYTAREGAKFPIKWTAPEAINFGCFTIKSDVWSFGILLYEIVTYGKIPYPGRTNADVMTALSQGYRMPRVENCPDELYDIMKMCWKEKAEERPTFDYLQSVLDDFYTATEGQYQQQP

[6] = biological target: Tyrosine-protein kinase Lyn (Homo sapiens) (UniProt P07948); assay: Inhibition of Lyn phosphorylation in human Rec1 cells at 2.5 uM incubated for 6 hrs by Western blotting method; type: cell-based
[7] = biological target: Tyrosine-protein kinase BTK (Homo sapiens) (UniProt Q06187); assay: Inhibition of BTK phosphorylation in human Rec1 cells at 5 uM incubated for 6 hrs by Western blotting method; type: cell-based
[8] = biological target: Tyrosine-protein kinase Lyn (Homo sapiens) (UniProt P07948); assay: Inhibition of Lyn phosphorylation in human Rec1 cells at 0.1 to 5 uM incubated for 6 hrs by Western blotting method; type: cell-based
[9] = Inhibition of cell proliferation of human Rec1 cells at 5 uM after 24 hrs by MTT assay; type: functional; settings: Rec1, 24 h
[10] = Growth inhibition of human Rec1 cells after 24 hrs by MTT assay; type: functional; settings: Rec1, 24 h
PBMC = assay: Induction of apoptotic cell death in human PBMCs at 1 to 10 uM after 24 hrs by Annexin V and propidium iodide staining based flow cytometry
[11] = Solubility in water; type: physicochemical
[12] = Growth inhibition of human HBL2 cells after 48 hrs by MTT assay; type: functional; settings: HBL2, 48 h
[13] = Growth inhibition of human HBL2 cells after 24 hrs by MTT assay; type: functional; settings: HBL2, 24 h
[14] = Growth inhibition of bortezomib-resistant human JBR cells after 48 hrs by MTT assay; type: functional
[15] = Growth inhibition of human Rec1 cells after 48 hrs by MTT assay; type: functional; settings: Rec1, 48 h
[16] = Growth inhibition of bortezomib-resistant human JBR cells after 24 hrs by MTT assay; type: functional
[17] = Growth inhibition of human GRANTA-519 cells after 48 hrs by MTT assay; type: functional; settings: Granta-519, 48 h
[18] = Growth inhibition of human SUDHL16 cells after 24 hrs by MTT assay; type: functional; settings: SU-DHL-16, 24 h
[19] = Growth inhibition of human Maver1 cells after 24 hrs by MTT assay; type: functional; settings: Maver1, 24 h
[20] = Growth inhibition of human Mino cells after 48 hrs by MTT assay; type: functional
[21] = Growth inhibition of human MEC1 cells after 48 hrs by MTT assay; type: functional; settings: MEC1, 48 h
[22] = Growth inhibition of human OCI-Ly8 cells after 24 hrs by MTT assay; type: functional; settings: OCI-Ly8, 24 h
[23] = Growth inhibition of human JeKo1 cells after 24 hrs by MTT assay; type: functional; settings: JeKo-1, 24 h
[24] = Growth inhibition of human MEC2 cells after 24 hrs by MTT assay; type: functional; settings: MEC2, 24 h
[25] = Growth inhibition of human MEC2 cells after 48 hrs by MTT assay; type: functional; settings: MEC2, 48 h
[26] = Growth inhibition of human SUDHL8 cells after 24 hrs by MTT assay; type: functional; settings: SU-DHL-8, 24 h
[27] = Growth inhibition of human DOHH2 cells after 48 hrs by MTT assay; type: functional; settings: DOHH-2, 48 h
[28] = Growth inhibition of human U2932 cells after 24 hrs by MTT assay; type: functional; settings: U2932, 24 h
[29] = Growth inhibition of human WSU-FSCCL cells after 24 hrs by MTT assay; type: functional
[30] = Growth inhibition of human Z138C cells after 24 hrs by MTT assay; type: functional
[31] = Growth inhibition of human SUDHL16 cells after 48 hrs by MTT assay; type: functional; settings: SU-DHL-16, 48 h
[32] = Growth inhibition of human JVM13 cells after 24 hrs by MTT assay; type: functional; settings: JVM13, 24 h
[33] = Growth inhibition of human JVM13 cells after 48 hrs by MTT assay; type: functional; settings: JVM13, 48 h
[34] = Growth inhibition of human DOHH2 cells after 24 hrs by MTT assay; type: functional; settings: DOHH-2, 24 h
[35] = Growth inhibition of human JVM2 cells after 24 hrs by MTT assay; type: functional; settings: JVM-2, 24 h
[36] = Growth inhibition of human GRANTA-519 cells after 24 hrs by MTT assay; type: functional; settings: Granta-519, 24 h
[37] = Growth inhibition of human MEC1 cells after 24 hrs by MTT assay; type: functional; settings: MEC1, 24 h
[38] = Growth inhibition of human UPN1 cells after 24 hrs by MTT assay; type: functional; settings: UPN1, 24 h
[39] = Growth inhibition of human SC1 cells after 24 hrs by MTT assay; type: functional; settings: SC-1, 24 h
[40] = Growth inhibition of human SUDHL8 cells after 48 hrs by MTT assay; type: functional; settings: SU-DHL-8, 48 h
[41] = Growth inhibition of human Maver1 cells after 48 hrs by MTT assay; type: functional; settings: Maver1, 48 h
[42] = Growth inhibition of human SC1 cells after 48 hrs by MTT assay; type: functional; settings: SC-1, 48 h
[43] = Growth inhibition of human U2932 cells after 48 hrs by MTT assay; type: functional; settings: U2932, 48 h
[44] = Growth inhibition of human JeKo1 cells after 48 hrs by MTT assay; type: functional; settings: JeKo-1, 48 h
[45] = Growth inhibition of human OCI-Ly8 cells after 48 hrs by MTT assay; type: functional; settings: OCI-Ly8, 48 h
[46] = Growth inhibition of human Mino cells after 24 hrs by MTT assay; type: functional
WSU-NHL [47] = assay: Growth inhibition of human WSU-NHL cells after 24 hrs by MTT assay; type: functional
[48] = Growth inhibition of human JVM2 cells after 48 hrs by MTT assay; type: functional; settings: JVM-2, 48 h
[49] = Growth inhibition of human WSU-FSCCL cells after 48 hrs by MTT assay; type: functional
WSU-NHL [50] = assay: Growth inhibition of human WSU-NHL cells after 48 hrs by MTT assay; type: functional
[51] = Growth inhibition of human UPN1 cells after 48 hrs by MTT assay; type: functional; settings: UPN1, 48 h
[52] = Growth inhibition of human Z138C cells after 48 hrs by MTT assay; type: functional

Q: For `CN1CCN(c2ccc(Nc3nc(N)c4cc(-c5c(Cl)cccc5Cl)c(=O)n(C)c4n3)cc2)CC1` [listing 1 of 2 here], which inhibition [1] is on record?
A: The inhibition was 10%.

Q: What about the Activity [2] of the same compound?
A: Its Activity is 3%.

Q: What about the inhibition [3] of the same compound?
A: Its inhibition is “Dose-dependent effect”.

Q: And the Activity [4]?
A: Its Activity is 9%.

Q: And the Activity [5]?
A: The Activity was -1%.

Q: And the inhibition [6]?
A: The inhibition was “Active”.

Q: And the inhibition [7]?
A: Its inhibition is 40%.

Q: What about the inhibition [8] of the same compound?
A: The inhibition was “Dose-dependent effect”.

Q: With `Cn1c(=O)c(-c2c(Cl)cccc2Cl)cc2c(N)nc(Nc3ccc(NCCN4CCOCC4)cc3)nc21` as the compound, how does the Activity [2] read?
A: The Activity was 10%.

Q: And the Activity [4]?
A: The Activity was 31%.

Q: What about the Activity [5] of the same compound?
A: The Activity was 0%.

Q: With `COc1cc(Nc2ncc(F)c(Nc3ccc4c(n3)NC(=O)C(C)(C)O4)n2)cc(OC)c1OC` [R-406] as the compound, how does the inhibition [6] read?
A: The inhibition was “Active”.

Q: What about the inhibition at 5 µM [9] of the same compound?
A: The inhibition at 5 µM was 31%.

Q: What does the source list for `Cn1c(=O)c(-c2c(Cl)cccc2Cl)cc2c(N)nc(Nc3ccc(OCCN4CCOCC4)cc3)nc21`?
A: Activity [2]: 16%; Activity [4]: 44%; Activity [5]: 0%

Q: With `Cn1c(=O)c(-c2c(Cl)cccc2Cl)cc2c(N)nc(Nc3ccccc3)nc21` as the compound, how does the GI50 [10] read?
A: The GI50 was 1.8 µM.

Q: And the Activity (PBMC)?
A: Its Activity is 3%.

Q: And the solubility [11]?
A: Its solubility is under 1 µg/mL.

Q: What about the GI50 [12] of the same compound?
A: The GI50 was 0.4 µM.

Q: What about the GI50 [13] of the same compound?
A: The GI50 was 1.7 µM.

Q: And the GI50 [14]?
A: The GI50 was 0.9 µM.

Q: And the GI50 [15]?
A: The GI50 was 0.7 µM.

Q: And the GI50 [16]?
A: Its GI50 is 3.1 µM.

Q: With `C=CC(=O)N1CCC[C@@H](n2nc(-c3ccc(Oc4ccccc4)cc3)c3c(N)ncnc32)C1` [IBRUTINIB] as the compound, how does the inhibition [6] read?
A: The inhibition was “Active”.

Q: And the inhibition at 5 µM [9]?
A: Its inhibition at 5 µM is 3%.

Q: Which results are given for `Nc1nc(Nc2ccccc2)nc2c1CC(c1c(Cl)cccc1Cl)CN2` (stereo not drawn)?
A: GI50 [10]: 4 µM; GI50 [12]: 2.4 µM; GI50 [13]: 7.5 µM; GI50 [15]: 1.3 µM

Q: What does the source list for `CN1CCN(c2ccc(Nc3nc(N)c4cc(-c5c(Cl)cccc5Cl)c(=O)n(C)c4n3)cc2)CC1` [listing 2 of 2 here]?
A: GI50 [17]: 3 µM; GI50 [18]: 5.4 µM; GI50 [19]: 3.6 µM; GI50 [20]: 3 µM; GI50 [10]: 3.2 µM; GI50 [21]: 4.9 µM; GI50 [22]: 5.4 µM; GI50 [23]: 3.6 µM; GI50 [24]: 5.9 µM; GI50 [25]: 4.9 µM; GI50 [12]: 2.6 µM; GI50 [26]: 5.4 µM; GI50 [27]: 2.7 µM; GI50 [28]: 5.4 µM; GI50 [29]: 3.7 µM; GI50 [30]: 3.6 µM; GI50 [31]: 5 µM; GI50 [13]: 4.9 µM; GI50 [32]: 5.9 µM; GI50 [33]: 4.9 µM; GI50 [15]: 3 µM; GI50 [34]: 3.7 µM; GI50 [35]: 3.6 µM; GI50 [36]: 3.6 µM; GI50 [37]: 5.9 µM; GI50 [38]: 3.6 µM; GI50 [39]: 3.7 µM; GI50 [40]: 5 µM; GI50 [41]: 3 µM; GI50 [42]: 2.7 µM; GI50 [43]: 5 µM; GI50 [44]: 3 µM; GI50 [45]: 5 µM; inhibition at 5 µM [9]: 63%; GI50 [46]: 3.6 µM; GI50 (WSU-NHL [47]): 3.7 µM; GI50 [48]: 3 µM; GI50 [49]: 2.7 µM; GI50 (WSU-NHL [50]): 2.7 µM; GI50 [51]: 3 µM; GI50 [52]: 3 µM

Q: What does the source list for `Nc1nc(Nc2ccccc2)nc2c1CC(c1c(Cl)cccc1Cl)C(=O)N2` (stereo not drawn)?
A: GI50 [10]: > 100 µM; GI50 [12]: 5.7 µM; GI50 [13]: 12 µM; GI50 [15]: 52.3 µM

Q: For `Nc1nc(N)c2c(n1)NC(=O)C(c1c(Cl)cccc1Cl)C2` (stereo not drawn), which GI50 [10] is on record?
A: The GI50 was over 100 µM.

Q: And the GI50 [12]?
A: The GI50 was over 100 µM.

Q: And the GI50 [13]?
A: The GI50 was over 100 µM.

Q: What about the GI50 [15] of the same compound?
A: Its GI50 is over 100 µM.

Q: Which GI50 [10] does the source give for `CN1C(=O)C(c2c(Cl)cccc2Cl)Cc2c(N)nc(Nc3ccccc3)nc21` (stereo not drawn) here?
A: The GI50 was 67.2 µM.

Q: And the GI50 [12]?
A: Its GI50 is 1.7 µM.

Q: What about the GI50 [13] of the same compound?
A: Its GI50 is over 100 µM.

Q: What about the GI50 [15] of the same compound?
A: The GI50 was 1.3 µM.

Q: Which GI50 [10] does the source give for `Nc1nc(Nc2ccccc2)nc2[nH]c(=O)c(-c3c(Cl)cccc3Cl)cc12` here?
A: Its GI50 is 12.1 µM.

Q: And the GI50 [12]?
A: The GI50 was over 100 µM.

Q: And the GI50 [13]?
A: Its GI50 is 8.8 µM.

Q: What about the GI50 [15] of the same compound?
A: Its GI50 is over 100 µM.

Q: For `CN1CCN(c2ccc(Nc3nc(N)c4cc(-c5c(Cl)cccc5Cl)c(=O)n(C)c4n3)cc2)CC1.CS(=O)(=O)O`, which solubility [11] is on record?
A: Its solubility is 10000 µg/mL.
